# Source: patent publication US8962574B2 (Boehringer Ingelheim International GmbH, priority 2008, dated 2015)
# Assays:
# [1] = tested on: patients with chronic atrial fibrillation; experiment: PETRO phase 2 12-week dose finding study; assay type: in vivo, human; conditions: 12 weeks
# Excerpt: Primary endpoints were bleeding events and changes in D-dimer. […] Minor bleeding was dose related.
# [2] = tested on: patients with atrial fibrillation at risk of stroke; experiment: RELY Clinical Trial, dabigatran 110 mg or 150 mg twice daily versus warfarin; assay type: in vivo
# Excerpt: The primary study outcome was stroke or systemic embolism. The primary safety outcome was major hemorrhage. Secondary outcomes were stroke, systemic embolism and death. […] All other bleeding was considered minor.
# All analyses were based on intention-to-treat.
# [3] = tested on: activated partial thromboplastin time (aPTT), ecarin clotting time, and thrombin clotting time; experiment: Coagulation tests
# [4] = tested on: patients with atrial fibrillation
# Procedure: PETRO-Ex began while the PETRO study was ongoing and investigators were initially kept blinded to patient treatment group until PETRO was completed. Unblinding investigators to patient treatment was possible thereafter.
# Data were summarized descriptively; no hypothesis was to be tested. Events were analyzed on the basis of the treatment at onset. Incidences were reported as number of patients with events as well as normalized to 100 patient-years on the respective treatment.
# Written, informed consent was obtained from all patients.
# Patients who completed PETRO on 50 mg b.i.d. were switched to 150 mg q.d. upon entry in the PETRO-Ex study (N=93 patients). […] Patients who were down titrated to 50 mg q.d. based on a glomerular filtration rate ≦50 mL/min during PETRO were excluded from the long-term trial; patients down-titrated in other dose levels remained on the q.d. treatment at that dose.
# The total exposure reflects both trials, PETRO and PETRO-Ex, together.
# [5] = of the 16 on treatment cases with AST or ALT >3×ULN
smiles,measurement,setting,value
[H]/N=C(/N)c1ccc(NCc2nc3cc(C(=O)N(CCC(=O)O)c4ccccn4)ccc3n2C)cc1 [dabigatran],Change in D-dimer levels,[1],comparable to warfarin
same,Rate of hemorrhagic stroke,[2]; 110 mg b.i.d.,0.12 % per year
same,"Rate of net benefit-risk outcome (major vascular events, major bleeding and death)",[2]; 110 mg b.i.d.,7.37 % per year
same,"Stroke, systemic embolism, pulmonary embolism, myocardial infarction death or major bleed (net benefit), Rate",[2]; 110 mg b.i.d.,7.37 /100 Person Years
same,"First Hospitalization, RR",[2]; 110 mg vs. Warfarin,0.92
same,"Non-disabling Stroke Modified Rankin 0-2, RR",[2]; 110 mg vs. Warfarin,0.87
same,"Stroke or systemic embolism, RR",[2]; 110 mg vs. Warfarin,0.91
same,"Stroke, Hemorrhagic, RR",[2]; 110 mg vs. Warfarin,0.31
same,"Stroke, RR",[2]; 110 mg vs. Warfarin,0.92
same,"Stroke, systemic embolism, pulmonary embolism, myocardial infarction death or major bleed (net benefit), RR",[2]; 110 mg vs. Warfarin,0.92
same,Rate of hemorrhagic stroke,[2]; 150 mg b.i.d.,0.10 % per year
same,"Rate of net benefit-risk outcome (major vascular events, major bleeding and death)",[2]; 150 mg b.i.d.,7.22 % per year
same,"Stroke, systemic embolism, pulmonary embolism, myocardial infarction death or major bleed (net benefit), Rate",[2]; 150 mg b.i.d.,7.22 /100 Person Years
same,"Stroke, Ischemic or Unspecified, RR",[2]; 150 mg vs. 110 mg,0.68
same,"Stroke, RR",[2]; 150 mg vs. 110 mg,0.70
same,"Stroke, systemic embolism, pulmonary embolism, myocardial infarction death or major bleed (net benefit), RR",[2]; 150 mg vs. 110 mg,0.98
same,"First Hospitalization, RR",[2]; 150 mg vs. Warfarin,0.97
same,"Non-disabling Stroke Modified Rankin 0-2, RR",[2]; 150 mg vs. Warfarin,0.62
same,"Stroke or systemic embolism, RR",[2]; 150 mg vs. Warfarin,0.66
same,"Stroke, Hemorrhagic, RR",[2]; 150 mg vs. Warfarin,0.26
same,"Stroke, Ischemic or Unspecified, RR",[2]; 150 mg vs. Warfarin,0.76
same,"Stroke, RR",[2]; 150 mg vs. Warfarin,0.64
same,"Stroke, systemic embolism, pulmonary embolism, myocardial infarction death or major bleed (net benefit), RR",[2]; 150 mg vs. Warfarin,0.90
same,"Prolongation of aPTT, ecarin clotting time, and thrombin clotting time",[3],dose dependent prolongation
same,"Fatal bleeding events, rate",[4]; all doses,0.5 % per year
same,"LFT abnormality resolved after stopping, number of cases",[4]; [5],5
same,"LFT abnormality resolved with continuation, number of cases",[4]; [5],10
same,"Cases with an explanatory clinical diagnosis, number",[4]; of the 18 cases with AST or ALT >3×ULN,9
